Measured values published in patent US7041639B2, “Depsipeptide and congeners thereof for use as immunosuppressants” (XCYTE Therapies, Inc., priority 1999, dated 2006).
Values joined by “and” are separate entries in the source; they are usually repeats but may differ in a detail not shown here. Identical values can stand only once.

Tests used:
CD4 cells = experiment: Proliferation by MTT assay, purified CD4 cell cultures; assay type: cell-based, human; details: for concentration with no significant effect on proliferation of CD4 cells / lowest concentration that completely inhibits proliferation of CD4 cells: MTT day 3; for lowest concentration that completely inhibits proliferation of CD4 cells: 2 hour incubation prior to stimulation
Method: (§1) Cells isolated from human blood are grown in X-vivo media (Biowhittaker Inc., Walkersville, Md.) and depending on use supplemented with or without 20 U/ml IL-2 (Boehringer Mannheim, Indianapolis, Ind.) and supplemented with 5% human serum (Biowhittaker), 2 mM Glutamine (Life Technologies, Rockville, Md.) and 20 mM HEPES (Life Technology). Jurkat E6-1 cells (ATCC, Manassas, Va.) are grown in RPMI 1640 (Life Technologies) supplemented with 10% fetal bovine serum (FBS) (Biowhittaker), 2 mM glutamine (Life Technologies), […] (Life Technologies), and […] (Life Technologies).
(§2) Buffy coats from healthy human volunteer donors are obtained (American Red Cross, Portland, Oreg.). Peripheral blood mononuclear cells (PBMC) are obtained using Lymphocyte Separation Media (ICN Pharmaceuticals, Costa Mesa, Calif.) according to the manufacturers' instructions.
Peripheral blood lymphocytes (PBL) are obtained from the PBMC fraction by incubation in a culture flask (Costar, Pittsburgh, Pa.) or with uncoated Dynabeads (Dynal, Oslo, Norway), 1×10^8 cells/ml, 2 beads/cell, 2 h at 37° C. Monocytes and macrophages are removed by adherence to the culture flask or phagocytoze the paramagnetic beads that are depleted by magnetic cell separation according to the manufacture's instruction (Dynal). CD4 cells are purified from the PBL fraction by incubation with 10 μg/ml of monoclonal antibodies against CD8 (clone G10-1), CD20 (clone IF5), CD14 (clone F13) and CD16 (Coulter), 10^8 cells/ml, 20 min at 4° C. After washing, cells are depleted twice with sheep anti-mouse Ig-coupled dynabeads (10^6 cells/ml, 6 beads/cell, 20 min at 4° C.) and magnetic cell separation. The purity of CD4 cells are routinely 91–95% as measured by flow cytometry.
Dendritic cells are generated from PBMC adhering to the culture flask (Costar), 10^8 cells/ml, 2 h at 37° C. (without Dynabeads). After extensive washing, adherent cells are cultured for 7 days in media containing 500 U/ml GM-CSF (Boehringer-Mannheim) and 12.5 U/ml IL-4 (Boehringer-Mannheim). The resulting cell population is weakly adherent and expresses surface markers characteristic of dendritic cells (positive for HLA-DR, CD86, CD83, CD11c and negative for CD4). (note:all antibodies obtained from Becton Dickinson, Calif.).
Cells are stimulated by three different methodologies 1) Dynabeads (M-450) covalently coupled to anti-CD3 (OKT-3) and anti-CD28 (9.3) antibodies (3×28 beads) according to the manufacturer's instructions (Dynal), 3 beads/cell, 2) Ionomycin (Calbiochem, La Jolla, Calif.) (100 ng/ml) and phorbol 12-myristate-13-acetate (PMA) (Calbiochem) (10 ng/ml), 3) allogeneic dendritic cells (25,000 dendritic cells/200,000 CD4 cells). All cells are stimulated at a concentration of 1×10^6 cells/ml. Cells are incubated with compounds of structure (I) (e.g., FR901228) (NCI, Bethesda, Md.) for 1 to 2 hours prior to stimulation as outlined above. Proliferation assays are conducted in quadruplicate in 96 well flat-bottom plates. Cells are stimulated at 1×10^6 cells/ml in a final volume of 200 μl. Proliferation is measured by MTT assay (MTT assay kit, Chemicon International Inc., Temecula, Calif.) at day 3 (stimulation method 1 and 2) or at day 6 (stimulation method 3), and results are presented as mean value of quadruplicates. PBL cultures or purified CD4 cell cultures are stimulated with 3×28 beads, ionomycin/PMA or allogenic dendritic cells. […] Further, […] cell survival is not affected by FR901228, as assessed by sub-G1 DNA measurement and integrity of the cell membrane (FIG. 5D). Lack of cytotoxicity of FR901228 is in agreement with results described by Byrd et al, Blood 94(4):1401–1408, 1999; Bates et al., Clinical Pharmacology, Programs and Proceedings of American Society of Clinical Oncology, Abstract 693, 1999; and Chassaing et al., J. Chrmatogr. B 719:169–176, 1998.

[1] = system: peripheral blood lymphocyte (PBL); experiment: Proliferation by MTT assay, PBL cultures; assay type: cell-based, human
Method: as §1, §2
Peripheral blood lymphocytes (PBL) are obtained from the PBMC fraction by incubation in a culture flask (Costar, Pittsburgh, Pa.) or with uncoated Dynabeads (Dynal, Oslo, Norway), 1×10^8 cells/ml, 2 beads/cell, 2 h at 37° C. Monocytes and macrophages are removed by adherence to the culture flask or phagocytoze the paramagnetic beads that are depleted by magnetic cell separation according to the manufacture's instruction (Dynal). […] The purity of CD4 cells are routinely 91–95% as measured by flow cytometry. […]

CD154 transcript = experiment: RT-PCR of the CD154 transcript; assay type: cell-based; details: 18 hours of stimulation with 3×28 beads; data not shown
Method: In separate experiments, RT-PCR of the CD154 transcript was carried out after 18 hours of stimulation with 3×28 beads and various amounts of FR901228. […] Experiments were also conducted using CD4 cells incubated with anti-sense constructs of c-myc. After stimulation by 3×28 beads for twenty-four hours, the anti-sense c-myc construct reduced CD154 expression as measured by flow cytometry by about 50% as compared to controls including:no construct, sense or transfection with a scrambled c-myc construct (data not shown). Accordingly, FR901228 and like compounds may target the activity of c-myc and its induction of CD154 as one mechanism of immune suppression.

NODSCID mice = experiment: Diabetes onset in NODSCID mice given NOD spleen cells; assay type: in vivo; details: 0.5 mg/kg i.p. every other day
Method: (§3) FR901228 was dissolved in 10% DMSO in PBS and were administered i.p. to NOD or NODSCID mice every other day. Controls contained only the DMSO excipient (10% DMSO in PBS). […] 0.5 mg/kg of FR901228 was administered at each treatment to twenty animals (ten NOD animals and ten NODSCID animals). Every two weeks the number of mice in each treatment group that had become diabetic was evaluated by measuring blood glucose levels using a glucometer at bi-weekly intervals. A reading of more than 200 mg/dl of blood glucose on two consecutive observations was considered indicative of frank diabetes.

NOD mice = experiment: Diabetes onset in NOD mice; assay type: in vivo; details: 0.5 mg/kg i.p. every other day; ten NOD animals
Method: as §3

A1.1 T-cell hybridoma = details: Wang et al., Oncogene 1998; cited from earlier work
[2] = system: Haras transfected mouse fibroblasts (NIH-3T3); details: background statement; cited from earlier work

## C/C=C1\NC(=O)[C@H]2CSSCC/C=C/[C@H](CC(=O)N[C@H](C(C)C)C(=O)N2)OC(=O)[C@H](C(C)C)NC1=O [FR901228]
CD4 cells; 3×28 beads
  concentration with no significant effect on proliferation of CD4 cells: ≤ 1 ng/mL
  lowest concentration that completely inhibits proliferation of CD4 cells: 10 ng/mL
CD4 cells; addition of 100 U/ml IL-2
  T-cell proliferation on addition of IL-2: will not restore proliferation
CD4 cells; allogenic dendritic cells, MTT day 6
  lowest concentration that significantly inhibits proliferation induced by allogenic dendritic cells: 1 ng/ml
CD4 cells; ionomycin/PMA
  concentration with no significant effect on proliferation of CD4 cells: ≤ 1 ng/mL
  lowest concentration that completely inhibits proliferation of CD4 cells: 10 ng/mL
CD4 cells; stimulation by anti-CD3/anti-CD28 beads, FIG. 3
  inhibition of CD4 positive T-cell proliferation: dose dependent inhibition
CD4 cells; stimulation with in vitro generated allogenic dendritic cells, FIG. 4
  inhibition of CD4 positive T-cell proliferation: dose dependent inhibition
[1]; stimulation by beads having anti-CD3 and anti-CD28 antibodies, FIG. 1
  inhibition of peripheral blood lymphocyte (PBL) proliferation: dose dependent inhibition
[1]; stimulation with Ionomycin/PMA, FIG. 2
  inhibition of peripheral blood lymphocyte (PBL) proliferation: dose dependent inhibition
CD154 transcript
  levels of CD154 expression by RT-PCR: reduced levels of CD154 expression with increasing amounts
NODSCID mice; frank diabetes = more than 200 mg/dl on two consecutive observations
  delay of onset of frank diabetes versus excipient only: at least two
NODSCID mice; NODSCID, head 'age (wks.)' 6, one line per mouse
  blood glucose / status of single mouse, column 6 (5/9): 261 mg/dL
NODSCID mice; NODSCID, head 'age (wks.)' 8, one line per mouse, 0.5 mg/kg
  blood glucose / status of single mouse, (5/23): 547 mg/dL and 527 mg/dL
NODSCID mice; NODSCID, head 'age (wks.)' 10, one line per mouse, 0.5 mg/kg
  blood glucose / status of single mouse, (6/6): 482 mg/dL and 526 mg/dL and 343 mg/dL and 317 mg/dL and 299 mg/dL and 412 mg/dL and 441 mg/dL and 494 mg/dL and 399 mg/dL and 285 mg/dL
NODSCID mice; NODSCID, head 'age (wks.)' 12, one line per mouse, 0.5 mg/kg
  blood glucose / status of single mouse, (6/20): High (2×) and 566 mg/dl and 596 mg/dl and 568 mg/dl and 539 mg/dl and 338 mg/dl and 240 mg/dl and Dead and 576 mg/dl
NODSCID mice; NODSCID, head 'age (wks.)' 14, one line per mouse, 0.5 mg/kg
  blood glucose / status of single mouse, 7/4: 536 mg/dl and 402 mg/dl and Dead (5×) and 494 mg/dl and 558 mg/dl
NODSCID mice; NODSCID, head 'age (wks.)' 16, one line per mouse
  blood glucose / status of single mouse, column 16 (7/18): 571 mg/dL
NODSCID mice; NODSCID, head 'age (wks.)' 18, one line per mouse
  blood glucose / status of single mouse, column 18 (8/1): Dead
NOD mice
  development of frank diabetes during the 18 week study: no NOD mouse treated with the compound developed frank diabetes
A1.1 T-cell hybridoma
  CD3-induced IL-2 production: did not inhibit
[2]
  transformation of Haras transfected NIH-3T3: inhibit transformation
